One data set has as its system human fibroblasts. Briefly: Cytotoxicity test: culture viability of human fibroblasts (Cell Counting Kit-8). Type of data set: cell-based. The settings on record: 48 hours treatment, FIG. 1. The protocol:
First, to examine the biotoxicity of 1,2,3-butanetriol, culture survival experiments of human fibroblasts according to the concentration change of 1,2,3-butanetriol were conducted.
The initial seeding density was 5000 cells/well based on 96 wells, and the culture conditions were as follows:
Dulbecco's Modified Eagle Medium (DMEM)+Fetal Bovine Serum (FBS) 10%; 37° C., 5% CO2; and 12 hours after seeding, 1,2,3-butanetriol was treated at different concentrations to determine cytotoxicity, and after 48 hours of 1,2,3-butanetriol treatment, Dojindo Cell Counting Kit-8 was dispensed at a rate of 10 μl per well and incubated at 37° C. for 2 hours, then cell viability was measured at 450 nm Absorbance.
FIG. 1 is a graph illustrating the culture viability of human fibroblasts according to the concentration change of 1, 2,3-butanetriol, and the horizontal axis of FIG. 1 indicates the concentration of the treated 1,2,3-butanetriol in an mM unit.

The next data set deals with bacteria in plaque. Briefly: Antibacterial test of 1,2,3-butanetriol: growth of cultured plaque bacteria, absorption at 600 nm. Type of data set: cell-based, oral bacteria. The settings on record: FIG. 2. The method, then: Subsequently, to examine the effect of inhibiting bacterial activity in plaque, bacterial strains were prepared as follows. First, plaque was collected from three research participants, and was cultured in a BHI medium (Bovine Heart Infusion 4 g/160 ml distilled water-DDW) with 1 wt. % sucrose added for 24 hours. From the above cultured strain, gDNA was extracted, and the bacteria were identified through PCR. BHI medium (Bovine Heart Infusion 4 g/160 ml distilled water-DDW) with 1wt. % sucrose added was prepared and sterilized in a high-temperature and high-pressure autoclave. Then, 1,2, 3-butanetriol (1,2,3-BT) was dispensed to each concentration, and a 96-well microplate containing 180 μl of the culture solution was prepared. Here, 20 μl of the culture solution in which the bacteria in plaque prepared above was proliferated was dispensed per well. This microplate was placed in a Biotek Synergy 2 microplate reader, the temperature was adjusted to 37° C., and the absorption rate was measured at 600 nm.

Data set [1] has as its system bacteria in plaque (species of Table 1). The data set can be described thus: Antibacterial test of 1,2,3-butanetriol: gDNA extraction and PCR per bacterial species. Type of data set: cell-based, oral bacteria. The settings on record: PCR of gDNA after butanetriol treatment, FIG. 3. From the text:
From the above cultured strain, gDNA was extracted, and the bacteria were identified through PCR. [table] Separately from the absorption rate measurement, gDNA was extracted from the well microplate after treatment with butanetriol, and the results identified by PCR are shown in FIG. 3.

As to `CC(O)C(O)CO` (racemic) [1,2,3-butanetriol], the cell viability result in the data set with human fibroblasts (concentration of about 12.5 mM or less) is “not significantly reduced”; with human fibroblasts (concentration of about 25 mM), “about 50%”. In addition, in the data set on bacteria in plaque (12 hours after culturing, compared to no 1,2,3-butanetriol treatment, lowest effect), the “effect of inhibiting bacterial growth (at least)” value is on record as “at least 10%”. Also, the “effect of inhibiting bacterial growth (maximum)” value with bacteria in plaque (12 hours after culturing, compared to no 1,2,3-butanetriol treatment, maximum effect) is given as not below 50%. The bacterial growth result in the data set with bacteria in plaque (plaque bacteria in BHI medium with 1 wt. % sucrose, 37° C.) is given as “significantly effectively inhibited”. Besides, in data set [1], the “growth inhibitory effect on each bacterial species” value is given as “clearly identified”.

Values taken from patent US20220304941A1, “COMPOSITION FOR PREVENTING OR TREATING ORAL DISEASES” (TECOZYME INC, priority 2019, published 2022).
